From patent US7265111B2, “Adenosine analogues and their use as pharmaceutical agents” (Sanofi-Aventis Deutschland GmbH, priority 2002, dated 2007)

Key:
Adenosine A3 receptor = target: T1, Adenosine A3 receptor (Homo sapiens, UniProt P0DMS8); experiment: FLIPR intracellular Ca2+ functional assay, recombinant CHO cells (A3/Gα6qi4myr); format: cell-based; conditions: for EC50: read-out: EC50 values (agonist activity at adenosine receptors) A3
T1 construct: expressed in transfected cells; host or cells: CHO (Chinese hamster ovary) cells, stably double-transfected
T1 sequence (P0DMS8 1-318): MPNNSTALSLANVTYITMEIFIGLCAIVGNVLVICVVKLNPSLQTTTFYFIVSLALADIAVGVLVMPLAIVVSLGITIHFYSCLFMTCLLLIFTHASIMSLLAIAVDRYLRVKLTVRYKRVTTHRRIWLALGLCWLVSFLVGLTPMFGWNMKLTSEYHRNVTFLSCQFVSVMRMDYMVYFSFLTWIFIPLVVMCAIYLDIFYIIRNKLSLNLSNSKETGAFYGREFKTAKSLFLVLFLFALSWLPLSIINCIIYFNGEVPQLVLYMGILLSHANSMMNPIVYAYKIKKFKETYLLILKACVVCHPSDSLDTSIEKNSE
Method: (§1) In Vitro Functional Assays with Recombinant Cell Lines:
(§2) Functional assays were performed by detection of agonist-induced changes in the intracellular concentration of Ca^2+ in recombinant cell lines expressing adenosine receptor subtypes using the FLIPR™ (fluorescence imaging plate reader, Molecular Devices) technology. To allow optimal signalling through Ca^2+, chinese hamster ovary (CHO) cells were stably double-transfected with cDNAs to achieve expression of suitable combinations of adenosine receptor subtypes (A1, A2a, A2b or A3) with either G-protein Gα16 or hybrid protein Gα6qi4myr (German Patent Application no. 100333532.2). Optimal signals were achieved using combinations as follows:
(§3) For assays, recombinant cells were seeded in 96-well dishes (50000 cells/well) and grown overnight. Medium was then removed and cells incubated for 1 hour in buffer containing the dye Fluo-4. After incubation with dye, cells were washed, test compound added and changes in intracellular Ca^2+ concentration measured by FLIPR. Measured values were expressed as % change relative to controls (0%: no test compound added; 100%: 1 μM Adenosine added) and used for calculation of dose-response curves and subsequent determination of EC50 values.

Adenosine A1 receptor = target: T2, Adenosine A1 receptor (Homo sapiens, UniProt P30542); experiment: FLIPR intracellular Ca2+ functional assay, recombinant CHO cells (A1/Gα6qi4myr); format: cell-based; conditions: read-out: EC50 values (agonist activity at adenosine receptors) A1
T2 construct: expressed in transfected cells; host or cells: CHO (Chinese hamster ovary) cells, stably double-transfected
T2 sequence (P30542 1-326): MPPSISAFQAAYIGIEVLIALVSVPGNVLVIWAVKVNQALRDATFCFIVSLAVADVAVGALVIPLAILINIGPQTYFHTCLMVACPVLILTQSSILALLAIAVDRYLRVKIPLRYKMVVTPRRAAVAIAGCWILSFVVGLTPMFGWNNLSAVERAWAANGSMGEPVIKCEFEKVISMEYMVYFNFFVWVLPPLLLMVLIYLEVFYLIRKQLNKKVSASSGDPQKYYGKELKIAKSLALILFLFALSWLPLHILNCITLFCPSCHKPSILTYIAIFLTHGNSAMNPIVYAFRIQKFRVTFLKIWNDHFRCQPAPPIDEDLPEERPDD
Method: as §1, §2, §3

Adenosine A2a receptor = target: T3, Adenosine A2a receptor (Homo sapiens, UniProt P29274); experiment: FLIPR intracellular Ca2+ functional assay, recombinant CHO cells (A2a/Gα16); format: cell-based
T3 construct: expressed in transfected cells; host or cells: CHO (Chinese hamster ovary) cells, stably double-transfected
T3 sequence (P29274 whole entry): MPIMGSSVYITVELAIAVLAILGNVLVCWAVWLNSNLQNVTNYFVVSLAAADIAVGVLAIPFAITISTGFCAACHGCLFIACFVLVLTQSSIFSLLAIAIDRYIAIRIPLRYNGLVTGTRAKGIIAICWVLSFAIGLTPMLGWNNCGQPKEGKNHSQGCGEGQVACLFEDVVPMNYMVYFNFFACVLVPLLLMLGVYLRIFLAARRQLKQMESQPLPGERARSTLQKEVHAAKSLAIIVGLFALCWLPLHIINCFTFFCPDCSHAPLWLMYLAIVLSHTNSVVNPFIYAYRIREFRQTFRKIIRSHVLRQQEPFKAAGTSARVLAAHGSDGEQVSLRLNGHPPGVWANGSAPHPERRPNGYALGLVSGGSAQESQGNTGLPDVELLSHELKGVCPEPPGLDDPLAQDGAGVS
Method: as §1, §2, §3

Adenosine A2b receptor = target: T4, Adenosine A2b receptor (Homo sapiens, UniProt P29275); experiment: FLIPR intracellular Ca2+ functional assay, recombinant CHO cells (A2b/Gα16); format: cell-based; conditions: for EC50: read-out: EC50 values (agonist activity at adenosine receptors) A2B
T4 construct: expressed in transfected cells; host or cells: CHO (Chinese hamster ovary) cells, stably double-transfected
T4 sequence (P29275 1-332): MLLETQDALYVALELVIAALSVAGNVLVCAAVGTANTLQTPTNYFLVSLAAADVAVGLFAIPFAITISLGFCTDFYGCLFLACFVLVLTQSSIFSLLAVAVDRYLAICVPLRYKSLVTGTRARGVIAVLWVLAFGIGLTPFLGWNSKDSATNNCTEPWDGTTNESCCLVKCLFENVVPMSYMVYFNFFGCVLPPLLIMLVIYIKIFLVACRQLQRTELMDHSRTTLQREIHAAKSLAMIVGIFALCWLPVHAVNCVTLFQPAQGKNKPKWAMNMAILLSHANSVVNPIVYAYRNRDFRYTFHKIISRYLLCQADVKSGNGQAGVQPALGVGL
Method: as §1, §2, §3

isolated rat adipocytes = experiment: Antilipolytic effect in isolated rat adipocytes; format: cell-based; conditions: Adipocyte, adenosine deaminase-induced lipolysis (glycerol and free fatty acid release)
Method: E. Antilipolytic Effect in Isolated Rat Adipocytes:
For the preparation of isolated rat adipocytes, epididymal fat pads were obtained from male Sprague-Dawley rats (150-180 g) killed by decapitation. The main fat pad blood vessel was removed with forceps and the pads were cut into small pieces. Digestion was carried out at 37° C. in a shaking water bath by treating 1 g of sliced pad for 20 min with 3 ml of 1 mg/ml collagenase (type I, CLS, Worthington) in 1% BSA, fraction V, in KRH (Krebs-Ringer solution buffered with 25 mM HEPES/KOH, pH 7.4, containing 2.5 mM CaCl2, 2 mM glucose, 1 mM sodium pyruvate, 0.5 units/ml adenosin deaminase and 200 nM phenylisopropyl adenosine). The adipocytes were filtered through nylon mesh of sufficient pore size that no pressure other than gentle teasing with a plastic spatula was necessary for the cells to pass through. After three cycles of centrifugation (500 g, 1 min), aspiration of the infranatant. and resuspension in KRH containing 1% BSA, the cells were suspended in KRH containing 4% defatted BSA. Small aliquots of the final suspension were aspirated into capillary hematocrit tubes and centrifuged for 1 min in a Microhematocrit centrifuge in order to determine what fraction of the suspension consisted of fat cells. Results expressed as activities per unit volume of packed adipocytes (corresponding to equivalent numbers of cells) are based on this centrifugation procedure. Lipolysis was initiated by addition of a 100 μl aliquot of the adipocyte suspension to 700 μl of incubation medium [prewarmed to 37° C. and consisting of KRH, 4% defatted BSA and 1 U/ml adenosine deaminase (type I, Sigma)], with or without addition of 8 μl of a solution of the appropriate test substance in 100% DMSO (at a concentration corresponding to 100 times its concentration in the final mixture). […] Incubations were performed in 5 ml polypropylene vials agitated in a shaking water bath (140 cycles/min, amplitude 4.5 cm) at 37° C. for 20, 40, and 60 min. The incubation was terminated by addition of 200 μl of 50 mM EDTA buffered to pH 7.4 with Tris. For the glycerol determination, the whole mixture was mixed rapidly and homogenized with a ground glass pestle in a 1 ml ground glass homogenizing tube (10 pulses). The homogenate was transferred immediately to a 1.5 ml Eppendorf cup precooled to 4° C., after which the extracts were maintained at 4° C. The homogenate was then centrifuged (10,000 g, 15 min) and the infranatant below the fat cake removed with a glass Pasteur pipette. taking care not to aspirate the membrane pellet. and transferred to another Eppendorf cup. 300 μl aliquots of the infranatant were added to 300 μl volumes of 10% (w/v) HClO4. The precipitate was in each case removed by centrifugation (10,000 g, 2 min) and the supernatant neutralized with 20% (w/v) KOH, followed by addition of 50 μl of 1 M Tris/HCl, pH 7.4, A 50 μl sample was then incubated (5 min, 37° C.) with 1 ml of 0.1 M HEPES/KOH, pH 7.5, containing 2 mM ATP, 0.5 mM 4-aminoantipyrine, 1 mM EDTA, 0.5 U glycerol kinase, 4 U glycerol-3-phosphate oxidase, 2 U peroxidase, 2.7 mM p-chlorophenol, 0.04% Triton X-100 and 2 mM MgSO4.7H2O, and the glycerol content determined from the absorbance at 505 nm. For the determination of free fatty acids, 300 μl aliquots of the incubation mixture were added to 3 ml of chloroform/heptane (1:1 v/v) containing 2% (v/v) methanol. and the liberated free fatty acids determined with copper reagent and bathocuproine. The inhibitory activities of the cyclipostins were calculated from the combined results (glycerol and free fatty acid release) by plotting the log of the dose against the percent response (with the adenosine deaminase-induced lipolysis set at 100%). Data in the linear portion of the log (dose)-percent response curves were analyzed using parallel-line bioassay techniques.

[1] = test system: isolated guinea pig atrium; experiment: Effect on the isolated guinea pig atrium (contractile force, heart rate)
Method: D. Effect on the Isolated Guinea Pig Atrium:
Guinea pigs of either sex were killed by a blow on the back of the neck and exsanguinated.
Their heart was taken out and the atria removed. The preparation (atrium) was immediately transferred to Ringer solution (JT 431) which was at a temperature of 32° C. and was bubbled with a mixture of 95% O2 and 5% CO2. The composition of the solution in […] was: NaCl 9.0; KCl 0.42 CaCl2 0.24; NaHCO3 0.2; glucose 1.0. The atrium beats spontaneously with an initial tension of 500 mg. The contractile force and the heart rate was recorded with a computer program and automatically calculated (B-mon and A-mon PC programs. Fa. Jäckel. Hanau. GERMANY). After equilibration, the test compound was added to a final bath concentration. N was 4-6 per concentration.

SMILES	EC50 (Adenosine A1 receptor) [nM]	melting point [°C]	EC50 (Adenosine A3 receptor) [nM]	IC50 (isolated rat adipocytes) [nM]	EC50 values (agonist activity at adenosine receptors) A2A (Adenosine A2a receptor)	EC50 (Adenosine A2b receptor) [nM]	Heart rate ([1]; at 1–100 μM)	other results
O[C@@H]1[C@@H](COC(F)(F)F)C[C@@H](n2cnc3c(N[C@H]4CCN(c5cccc(Cl)c5)C4)ncnc32)[C@@H]1O [Example 3, (1R,2S,3R,5R)-3-{6-[1-(3-chloro-phenyl-1-yl)-pyrrolidin-3(S)-ylamino]-purin-9-yl}-5-trifluoromethoxymethyl-cyclopentane-1,2-diol]	3690	–	–	–	–	–	–	EC50 values (agonist activity at adenosine receptors) A3 (Adenosine A3 receptor): inactive; EC50 (Adenosine A2a receptor; read-out: EC50 values (agonist activity at adenosine receptors) A2A): > 30000 nM; EC50 values (agonist activity at adenosine receptors) A2B (Adenosine A2b receptor): inactive
O[C@@H]1[C@@H](CF)C[C@@H](n2cnc3c(N[C@H]4CCN(c5cccc(Cl)c5)C4)ncnc32)[C@@H]1O [Example 1, (1R,2S,3R,5S)-3-{6-[1-(3-chloro-phenyl-1-yl)-pyrrolidin-3(S)-ylamino]-purin-9-yl}-5-fluoromethyl-cyclopentane-1,2-diol]	150	–	> 50000	5	inactive	> 30000	no effect at 1–100 μM	–
CC[C@H](Cc1sccc1Cl)Nc1ncnc2c1ncn2[C@@H]1C[C@H](CF)[C@@H](O)[C@H]1O [Example 2, (1R,2S,3R,5S)-3-{6-[(R)-1-(3-chloro-thiophen-2-ylmethyl) -propylamino]-purin-9-yl}-5-fluoromethyl-cyclopentane-1,2-diol]	20	–	> 40000	20	inactive	3400	–	Contractile force ([1]; at 10 μM): −4% at 10 μM; Heart rate ([1]; at 10 μM): −4% at 10 μM
O[C@@H]1[C@@H](CF)C[C@@H](n2cnc3c(N[C@H]4CCN(c5ccc(C(F)(F)F)cn5)C4)ncnc32)[C@@H]1O [Example 4, (1R,2S,3R,5S)-3-{6-[1-(5-trifluoromethyl-pyridin-2-yl)-pyrrolidin-3(S)-ylamino]-purin-9-yl}-5-fluoromethyl-cyclopentane-1,2-diol]	1610	–	> 50000	100	Inactive	> 30000	no effect at 1–100 μM	Contractile force ([1]; at 10 μM): −7% at 10 μM

Continued, in another order:

EC50 (Adenosine A1 receptor) [nM]	melting point [°C]	EC50 (Adenosine A3 receptor) [nM]	IC50 (isolated rat adipocytes) [nM]	EC50 values (agonist activity at adenosine receptors) A2A (Adenosine A2a receptor)	EC50 (Adenosine A2b receptor) [nM]	SMILES	Heart rate ([1]; at 1–100 μM)	other results
–	130	–	–	–	–	O[C@@H]1[C@@H](COC(F)(F)F)C[C@@H](n2cnc3c(N[C@H]4CCN(c5ccc(Cl)cn5)C4)ncnc32)[C@@H]1O [Example 9, (1R,2S,3R,5R)-3-{6-[1-(5-chloro-pyridin-2-yl)-pyrrolidin-3(S) -ylamino]-purin-9-yl}-5-trifluoromethoxymethyl-cyclopentane-1,2-diol]	–	–
–	140	–	–	–	–	CC[C@H](Cc1sccc1Cl)Nc1ncnc2c1ncn2[C@@H]1C[C@H](COC(F)(F)F)[C@@H](O)[C@H]1O [Example 11, (1R,2S, 3R, 5R)-3-{6-[(R)-1-(3-chloro-thiophen-2-ylmethyl) -propylamino]-purin-9-yl}-5-trifluoromethoxymethyl-cyclopentane-1,2-diol]	–	–
1250	–	–	10	Inactive	> 30000	O[C@@H]1[C@@H](CF)C[C@@H](n2cnc3c(N[C@H]4CCN(c5ccc(Cl)cn5)C4)ncnc32)[C@@H]1O [Example 6, (1R,2S,3R,5S)-3-{6-[1-(5-chloro-pyridin-2-yl)-pyrrolidin-3(S) -ylamino]-purin-9-yl}-5-fluoromethyl-cyclopentane-1,2-diol]	no effect at 1–100 μM	EC50 values (agonist activity at adenosine receptors) A3 (Adenosine A3 receptor): inactive; Contractile force ([1]; at 30 μM): −3% at 30 μM
–	142	–	–	–	–	O[C@@H]1[C@@H](COC(F)(F)F)C[C@@H](n2cnc3c(N[C@H]4CCN(c5ccc(C(F)(F)F)cn5)C4)ncnc32)[C@@H]1O [Example 8, (1R,2S,3R,5R)-3-{6-[1-(5-trifluoromethyl-pyridin-2-yl)-pyrrolidin-3(s)-ylamino]-purin-9-yl}-5-trifluoromethoxymethyl-cyclopentane-1,2-diol]	–	–
